In the supplement of paper PMC10307832:

Columns and labels:
Test in all cases: relative viability (nuclei count vs DMSO), 5 days (fraction); higher = more cells survive
[1] = compound: CC1=NN=C(O1)C2=NN=C(C=C2)N3CCC(CC3)OC4=C(C=CC(=C4)F)Cl + COc1cccc2cc(-c3nc([C@H]4CC[C@H](C(=O)O)CC4)n4ncnc(N)c34)[nH]c12 [OSI-027] (partner 0.5 µM)
In short: (§1)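 Lung cancer cell lines were pin-tool dosed in 1536-well plates on the day after seeding, with either a lone drug or a fixed anchor-drug dose plus five library-drug doses (not always all listed) in √10 steps. Nuclei were counted on 4× images after 5 days. Relative viability is the ratio of treated-well to vehicle-well nuclei counts, with each value a median of duplicate plates.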

Tosedostat + Foretinib = compound: CC(C)C[C@@H](C(=O)N[C@H](C(=O)OC1CCCC1)c1ccccc1)[C@H](O)C(=O)NO [Tosedostat] + COc1cc2c(Oc3ccc(NC(=O)C4(C(=O)Nc5ccc(F)cc5)CC4)cc3F)ccnc2cc1OCCCN1CCOCC1 [Foretinib] (partner 0.25 µM)
In short: as §1

[2] = compound: CC1=NN=C(O1)C2=NN=C(C=C2)N3CCC(CC3)OC4=C(C=CC(=C4)F)Cl + CS(=O)(=O)CCNCc1ccc(-c2ccc3ncnc(Nc4ccc(OCc5cccc(F)c5)c(Cl)c4)c3c2)o1 [Lapatinib] (partner 2 µM)
In short: as §1

[3] = compound: CC1=NN=C(O1)C2=NN=C(C=C2)N3CCC(CC3)OC4=C(C=CC(=C4)F)Cl + Nc1nc2[nH]cc(CCc3ccc(C(=O)N[C@@H](CCC(=O)O)C(=O)O)cc3)c2c(=O)[nH]1 [Pemetrexed] (partner 0.2 µM)
In short: as §1

Cell Line	relative viability ([1]; first compound 0.253 µM)	relative viability ([1]; first compound 0.8 µM)	relative viability ([1]; first compound 2.53 µM)	relative viability ([1]; first compound 8 µM)	relative viability (Tosedostat + Foretinib; first compound 0.02 µM)	relative viability (Tosedostat + Foretinib; first compound 0.06325 µM)	relative viability (Tosedostat + Foretinib; first compound 0.2 µM)	relative viability (Tosedostat + Foretinib; first compound 0.6325 µM)	relative viability (Tosedostat + Foretinib; first compound 2 µM)	relative viability ([2]; first compound 0.253 µM)	relative viability ([2]; first compound 0.8 µM)	relative viability ([2]; first compound 2.53 µM)	relative viability ([2]; first compound 8 µM)	relative viability ([3]; first compound 0.253 µM)	relative viability ([3]; first compound 0.8 µM)	relative viability ([3]; first compound 2.53 µM)	relative viability ([3]; first compound 8 µM)
LU99A	0.274	0.298	0.307	0.287	0.894	0.729	0.758	0.708	0.674	1.02	0.952	0.978	0.816	0.149	0.18	0.162	0.164
LXF-289	0.76	0.548	0.741	0.687	0.981	1	1.04	0.943	0.962	0.643	0.672	0.696	0.584	0.768	0.594	0.767	0.726
NCI-H23	0.49		0.547	0.627	1.01	0.889	0.919	0.827	0.69	1.03		0.955	0.876	0.669	0.543	0.698	0.622
NCI-H322M	0.513	0.492	0.636	0.516	0.995	0.899	0.93	0.904	0.857	0.467	0.581	0.592	0.551	0.629	0.381	0.578	0.592
NCI-H358	0.635	0.461	0.561	0.514	0.872	0.634	0.473	0.289	0.347	0.545	0.447	0.55	0.451	0.148	0.167	0.139	0.162
NCI-H460	0.319	0.302	0.137	0.0418	1.05	1	0.968	0.977	1	0.313	0.326	0.283	0.276	0.0764	0.0663	0.0645	0.071
NCI-H520	0.336		0.337	0.244	0.807	0.776		0.834	0.819	0.888	0.84	0.82	0.764	0.644	0.543	0.642	0.471
NCI-H596	0.565	0.572	0.734	0.698	0.905	0.872	0.938	0.764	0.839		0.845	0.932	0.888	0.52	0.494	0.476	0.394
NCI-H647	0.516	0.423	0.453	0.207	1.36	1.14	1.18	1.04	1.17	0.673	0.667	0.824	0.58	0.11	0.158	0.13	0.111
NCI-H650	0.553	0.447	0.528	0.437	1.05	1.04	0.92	0.941	0.765	0.999	0.833	0.839	0.851	0.943	0.65	0.781	0.814
NCI-H661	0.633	0.588	0.528	0.484	1.07	0.99	0.98	0.979	0.937	0.541	0.477	0.542	0.417	0.736	0.695	0.676	0.652
NCI-H838	0.37	0.394	0.396	0.331	1.1	1.02	1.04	1.08	1.13	0.86	0.645	0.842	0.78	0.235	0.251	0.215	0.23
NCI-H1355	0.343	0.38	0.386	0.331	0.93	0.991	0.99	0.92	0.883			0.869	0.78	0.715	0.562	0.949	0.874
NCI-H1395	0.641	0.588	0.639	0.595	0.917	1.05	0.952	0.918	0.871	0.849	0.782	1.02	0.873	0.69	0.668	0.831	0.812
NCI-H1437	0.697	0.742	0.795	0.614	1.3	1.32	1.34	1.25	1.25	0.434	0.486	0.545	0.453	0.24	0.282	0.232	0.218
NCI-H1563	0.772	0.854	0.77	0.834	0.961	0.997	0.958	1.12	1	0.804	0.992	0.88	0.82	0.735	0.878	0.825	0.648
NCI-H1650		0.472	0.626	0.615	1.05	0.955	1.03	0.985	0.967		0.71	0.691	0.566	0.317	0.349	0.33	0.343
NCI-H1651	0.73	0.597	0.717	0.697	0.864	0.736	0.764	0.906	0.688	0.695	0.784	0.691	0.708	0.488	0.422	0.445	0.444
NCI-H1666	0.539	0.697	0.801	0.797	1.08	1.01	0.945	0.899	1.05	0.303	0.554	0.608	0.428	0.735	0.69	0.741	0.751
